# System: Na^+/K^+/Cl^− cotransporter
# Assay: 86Rb uptake assay for Na+/K+/Cl− cotransporter activity in A7r5 cells
# Type: cell-based, Rat
# Settings: for effect on 86Rb uptake (activation of Na+/K+/Cl− cotransporter): 0.01 μM to 10 μM; for % control activity: 86Rb uptake, 10 min at 37° C.
# Description: The effect of Compound 1 ((−)-7-[(2R,4aR,5R,7aR)-2-(1,1-difluoropentyl)-2-hydroxy-6-oxooctahydrocyclopenta[b]pyran-5-yl]heptanoic acid) and Compound 2 ((−)-7-{(2R,4aR,5R,7aR)-2-[(3S)-1,1-difluoro-3-methylpentyl]-2-hydroxy-6-oxooctahydrocyclopenta[b]pyran-5-yl}heptanoic acid) on […] cotransporter were assessed by ^86Rb uptake. Rat aorta-derived smooth muscle cells (A7r5) cells were cultured to sub-confluent on culture dishes and used for the assay. The culture medium was removed and replaced by uptake medium that contains labeled isotope (47 μM ^86Rb) and each compound.
# After 10 min incubation at 37° C., uptake medium was removed and extracellular radioactivity was washed using 0.1M […] solution. The cells were harvested in 0.1M NaOH and the radioactivity incorporated by the cells was determined. Compound1 and 2 were tested at concentrations ranging from 0.01 μM to 10 μM and each determination was made in duplicate.
Compound,effect on 86Rb uptake (activation of Na+/K+/Cl− cotransporter),% control activity (compound 0.01 μM) [%],% control activity (compound 0.03 μM) [%],% control activity (compound 0.1 μM) [%],% control activity (compound 0.3 μM) [%],% control activity (compound 1 μM) [%],% control activity (compound 3 μM) [%],% control activity (compound 10 μM) [%]
"CC[C@H](C)CC(F)(F)[C@@]1(O)CC[C@H]2[C@@H](CC(=O)[C@@H]2CCCCCCC(=O)O)O1 [Compound 2, (−)-7-{(2R,4aR,5R,7aR)-2-[(3S)-1,1-difluoro-3-methylpentyl]-2-hydroxy-6-oxooctahydrocyclopenta[b]pyran-5-yl}heptanoic acid]",increased ^86Rb uptake concentration-dependently,108.1,143.0,157.4,171.3,168.5,213.6,205.1
"CCCCC(F)(F)[C@@]1(O)CC[C@H]2[C@@H](CC(=O)[C@@H]2CCCCCCC(=O)O)O1 [Compound 1, (−)-7-[(2R,4aR,5R,7aR)-2-(1,1-difluoropentyl)-2-hydroxy-6-oxooctahydrocyclopenta[b]pyran-5-yl]heptanoic acid]",increased ^86Rb uptake concentration-dependently,82.7,115.7,122.6,133.2,134.2,152.3,175.5
